Test results: publication PMC6259751, “Investigating Spectrum of Biological Activity of 4- and 5-Chloro-2-hydroxy-N-[2-(arylamino)-1-alkyl-2-oxoethyl]benzamides” (Molecules, 2011)
Values after ≈ are worked out from the molar mass of the structure shown. Read-outs that look alike come from different tables or passages of the source.

Assays:
[1] = test system: Mycobacterium kansasii MK CNCTC My 235/80; assay: In vitro antimycobacterial evaluation; type: cell-based; conditions: IC90 value
[2] = test system: Trichophyton mentagrophytes 445; assay: In vitro antifungal susceptibility testing (broth microdilution); type: cell-based; conditions: M38-A for moulds, IC50 value, read-out: MIC TM
[3] = test system: Staphylococcus epidermidis H 6966/08; assay: In vitro antibacterial susceptibility testing (broth microdilution)
[4] = Lipophilicity determination by RP-HPLC (capacity factor k / log k); type: physicochemical; conditions: C18 column, MeOH 70% / H2O 30%, isocratic
Procedure: Hydrophobicities (log P/Clog P) of compounds 8 and 9 were calculated using two commercially available programs (ChemOffice Ultra 10.0 and ACD/LogP) and measured by means of RP-HPLC determination of capacity factors k with subsequent calculation of log k. The procedure was performed under isocratic conditions with methanol as an organic modifier in the mobile phase using an end-capped non-polar C18 stationary RP column. The results are shown in Table 1 and illustrated in Figure 1.
A Waters Alliance 2695 XE HPLC separation module and a Waters Photodiode Array Detector 2996 (Waters Corp., Milford, MA, USA) were used. A Symmetry® C18 5 μm, 4.6 × 250 mm, Part No. WAT054275 (Waters Corp., Milford, MA, USA) chromatographic column was used. The HPLC separation process was monitored by Empower™ 2 Chromatography Data Software, Waters 2009 (Waters Corp., Milford, MA, USA). A mixture of MeOH p.a. (70%) and H2O-HPLC – Mili-Q Grade (30%) was used as a mobile phase. The total flow of the column was 1.0 mL/min, injection volume, 30 μL, column temperature, 30 °C and sample temperature, 10 °C. The detection wavelength of 210 nm was chosen. The KI methanolic solution was used for the dead time (tD) determination. Retention times (tR) were measured in minutes. The capacity factors k were calculated using the Empower™ 2 Chromatography Data Software according to formula k = (tR - tD)/tD, where tR is the retention time of the solute, whereas tD denotes the dead time obtained using an unretained analyte. Log k, calculated from the capacity factor k, is used as the lipophilicity index converted to log P scale.

[5] = test system: Staphylococcus aureus CCM 4516/08; assay: In vitro antibacterial susceptibility testing (broth microdilution); conditions: read-out: MIC SA
[6] = test system: Mycobacterium avium MA CNCTC My 330/88; assay: In vitro antimycobacterial evaluation; type: cell-based; conditions: IC90 value
Candida tropicalis 156 = assay: In vitro antifungal susceptibility testing (broth microdilution); type: cell-based; conditions: M27-A2 for yeasts, IC80 value
[7] = test system: Mycobacterium tuberculosis MTB CNCTC My 331/88; assay: In vitro antimycobacterial evaluation; type: cell-based; conditions: IC90 value
[8] = test system: Enterococcus sp. J 14365/08; assay: In vitro antibacterial susceptibility testing (broth microdilution); conditions: read-out: MIC EF
[9] = test system: methicilin resistant Staphylococcus aureus H 5996/08; assay: as above
[10] = test system: photosynthetic electron transport (PET) in spinach chloroplasts; assay: Inhibition of photosynthetic electron transport (PET) in spinach chloroplasts; type: biochemical, Spinacia oleracea L.; conditions: DCPIP photoreduction
Procedure: Chloroplasts were prepared from spinach (Spinacia oleracea L.) according to Masarovicova and Kralova. The inhibition of photosynthetic electron transport (PET) in spinach chloroplasts was determined spectrophotometrically (Genesys 6, Thermo Scientific, USA), using an artificial electron acceptor 2,6-dichlorophenol-indophenol (DCIPP) according to Kralova et al., and the rate of photosynthetic electron transport was monitored as a photoreduction of DCPIP. The measurements were carried out in phosphate buffer (0.02 mol/L, pH 7.2) containing sucrose (0.4 mol/L), MgCl2 (0.005 mol/L) and NaCl (0.015 mol/L). The chlorophyll content was 30 mg/L in these experiments and the samples were irradiated (~100 W/m^2) from 10 cm distance with a halogen lamp (250 W) using a 4 cm water filter to prevent warming of the samples. The studied compounds were dissolved in DMSO due to their limited water solubility. […] The inhibitory efficiency of the studied compounds was expressed by IC50 values, i.e. by molar concentration of the compounds causing 50% decrease in the oxygen evolution rate relative to the untreated control.

[11] = H6966/08, 24 h, read-out: MIC SE
[12] = H6966/08, 48 h, read-out: MIC SE

| SMILES | log k [4] | IC50 [10] | MIC ([1]; 14h) | MIC ([1]; 21h) | MIC ([2]; 72h) | MIC ([2]; 120h) | MIC [3, 11] | MIC [3, 12] | MIC ([5]; CCM4516, 24 h) | MIC ([5]; CCM4516, 48 h) | MIC ([6]; 14h) | MIC ([6]; 21h) | MIC (Candida tropicalis 156; 24h) | MIC (Candida tropicalis 156; 48h) | MIC ([7]; 14h) | MIC ([7]; 21h) | MIC ([8]; SP.J14365/08, 24 h) | MIC ([8]; SP.J14365/08, 48 h) | MIC ([9]; MRSA, 24 h, read-out: MIC MRSA) | MIC ([9]; MRSA, 48 h, read-out: MIC MRSA) | other results |
| --- | --- | --- | --- | --- | --- | --- | --- | --- | --- | --- | --- | --- | --- | --- | --- | --- | --- | --- | --- | --- | --- |
| C[C@@H](NC(=O)c1ccc(Cl)cc1O)C(=O)Nc1ccc(Cl)cc1 [9b, 4-Chloro-N-{(1R)-2-[(4-chlorophenyl)-amino]-1-methyl-2-oxoethyl}-2-hydroxy benzamide] | 0.4921 |  | 125 µM (≈ 44.2 µg/mL) | 125 µM (≈ 44.2 µg/mL) | 250 µM (≈ 88.3 µg/mL) | 250 µM (≈ 88.3 µg/mL) | 1.95 µM (≈ 0.689 µg/mL) | 1.95 µM (≈ 0.689 µg/mL) | 7.81 µM (≈ 2.76 µg/mL) | 7.81 µM (≈ 2.76 µg/mL) | 125 µM (≈ 44.2 µg/mL) | 125 µM (≈ 44.2 µg/mL) | 250 µM (≈ 88.3 µg/mL) | 250 µM (≈ 88.3 µg/mL) | 32 µM (≈ 11.3 µg/mL) | 62.5 µM (≈ 22.1 µg/mL) | 500 µM (≈ 177 µg/mL) | 500 µM (≈ 177 µg/mL) | 7.81 µM (≈ 2.76 µg/mL) | 7.81 µM (≈ 2.76 µg/mL) | MIC ([3]; H6966/08, read-out: activity against S. epidermidis (MIC)): 1.95 µM (≈ 0.689 µg/mL); MIC ([9]; read-out: activity against methicillin-resistant Staphylococcus aureus (MIC)): 7.81 µM (≈ 2.76 µg/mL) |
| CC(C)[C@@H](NC(=O)c1ccc(Cl)cc1O)C(=O)Nc1ccc(Cl)cc1 [9d] | 0.6832 |  | 62.5 µM (≈ 23.8 µg/mL) | 62.5 µM (≈ 23.8 µg/mL) | 7.81 µM (≈ 2.98 µg/mL) | 7.81 µM (≈ 2.98 µg/mL) | > 500 µM | > 500 µM | > 500 µM | > 500 µM | 62.5 µM (≈ 23.8 µg/mL) | 62.5 µM (≈ 23.8 µg/mL) | > 125 µM | > 125 µM | 62.5 µM (≈ 23.8 µg/mL) | 62.5 µM (≈ 23.8 µg/mL) | > 500 µM | > 500 µM | > 500 µM | > 500 µM |  |
| O=C(N[C@@H](Cc1ccccc1)C(=O)Nc1ccc(Cl)cc1)c1ccc(Cl)cc1O [9e] | 0.7540 |  | 32 µM (≈ 13.7 µg/mL) | 62.5 µM (≈ 26.8 µg/mL) | 125 µM (≈ 53.7 µg/mL) | 125 µM (≈ 53.7 µg/mL) | > 250 µM | > 250 µM | > 250 µM | > 250 µM | 32 µM (≈ 13.7 µg/mL) | 62.5 µM (≈ 26.8 µg/mL) | 125 µM (≈ 53.7 µg/mL) | 125 µM (≈ 53.7 µg/mL) | 32 µM (≈ 13.7 µg/mL) | 32 µM (≈ 13.7 µg/mL) | > 500 µM | > 500 µM | > 250 µM | > 250 µM |  |
| COc1ccc(NC(=O)[C@@H](NC(=O)c2ccc(Cl)cc2O)C(C)C)cc1 [9j] | 0.3623 | 35.7 µM |  |  |  |  |  |  |  |  |  |  |  |  |  |  |  |  |  |  |  |

More lines, main results first:

| log k [4] | IC50 [10] | SMILES | MIC ([1]; 14h) | MIC ([1]; 21h) | MIC ([2]; 72h) | MIC ([2]; 120h) | MIC [3, 11] | MIC [3, 12] | MIC ([5]; CCM4516, 24 h) | MIC ([5]; CCM4516, 48 h) | MIC ([6]; 14h) | MIC ([6]; 21h) | MIC (Candida tropicalis 156; 24h) | MIC (Candida tropicalis 156; 48h) | MIC ([7]; 14h) | MIC ([7]; 21h) | MIC ([8]; SP.J14365/08, 24 h) | MIC ([8]; SP.J14365/08, 48 h) | MIC ([9]; MRSA, 24 h, read-out: MIC MRSA) | MIC ([9]; MRSA, 48 h, read-out: MIC MRSA) | other results |
| --- | --- | --- | --- | --- | --- | --- | --- | --- | --- | --- | --- | --- | --- | --- | --- | --- | --- | --- | --- | --- | --- |
| 0.7353 | 24 µM | CC(C)[C@@H](NC(=O)c1ccc(Cl)cc1O)C(=O)Nc1ccc(Br)cc1 [9g] |  |  |  |  |  |  |  |  |  |  |  |  |  |  |  |  |  |  |  |
| 0.7892 | 14.2 µM | CC(C)[C@H](NC(=O)c1ccc(Cl)cc1O)C(=O)Nc1ccc(C(F)(F)F)cc1 [9h] |  |  |  |  |  |  |  |  |  |  |  |  |  |  |  |  |  |  |  |
| 0.5902 | 37.3 µM | Cc1ccc(NC(=O)[C@@H](NC(=O)c2ccc(Cl)cc2O)C(C)C)cc1 [9i] |  |  |  |  |  |  |  |  |  |  |  |  |  |  |  |  |  |  |  |
